Measured values reported in US20210292306A1, “NOVEL INDOLE DERIVATIVE AND ANTI-CANCER CONPOSITION CONTAINING SAME” (KOREA RESEARCH INSTITUTE OF BIOSCIENCE AND BIOTECHNOLOGY, priority 2016, published 2021).
In brackets after ≈: the same amount, converted by molar mass.

Tests used:
[1] = Solubility in phosphate buffer; format: physicochemical; conditions: aqueous buffer, thermodynamic from solid
Experimental: In order to examine the solubility of the indole derivative of the present invention, the solubility of the compound of Example 1 (WCI-1031) was examined at pH 6.5 or pH 7.4.
Specifically, a solid sample (˜1 mg) of the test substance was placed on Whatman Syringeless filter (PVDF membrane, 0.45 μm pore size) and mixed with 0.5 ml of a phosphate buffer (pH 6.5 or 7.4). The mixture was sonicated for 15 minutes and vortexed for 1 hour at room temperature. The equilibrated mixture was filtered and the filtrate was analyzed with a multi-wavelength UV plate reader (FIGS. 8 and 9).

MCF7 [2] = experiment: Anti-proliferative activity, multiple drug resistance study (MTT assay), parent line; format: cell-based; conditions: Homo sapiens, 96 h, 4 days, mean of three assays
Experimental: (§1) HeLa cells (ATCC, USA), which are a human cervical cancer cell line, were dispensed into a 96-well plate at 2×10^3 cells/well, and the cells were treated with DMSO or the indole derivatives of the present invention, and then allowed to grow for 4 days. And then, MTT (3-(4,5-Dimethylthiazol-2-yl)-2,5-diphenyltetrazolium bromide) reagent was added to the wells at 10 μl/well. After 2 hours, the absorbance was measured at “OD 450” and statistical values were obtained using the plizm6 program. The data represent mean values of the results of two repeated assays (Table 1). Specifically, K562 and MCF7 (Bio Evaluation Center, Korea Research Institute of Bioscience and Biotechnology, Korea), and K562/ADR and MCF7/ADR (Bio Evaluation Center, Korea Research Institute of Bioscience and Biotechnology, Korea), which are multiple drug-resistant cell lines of the above mentioned cell lines, respectively, were cultured on a microtiter plate at 1-3×10^3 cells/well.

K562 [3] = experiment: as above; format: cell-based; conditions: Homo sapiens, 96 h, 4 days, mean of three assays
Experimental: as §1

A 549 = experiment: Anti-proliferative activity in other cancer cell lines (MTT assay); format: cell-based; conditions: Homo sapiens, A549, 96 h, A 549 (lung), 4 days, mean of three assays
Experimental: (§2) HeLa cells (ATCC, USA), which are a human cervical cancer cell line, were dispensed into a 96-well plate at 2×10^3 cells/well, and the cells were treated with DMSO or the indole derivatives of the present invention, and then allowed to grow for 4 days. And then, MTT (3-(4,5-Dimethylthiazol-2-yl)-2,5-diphenyltetrazolium bromide) reagent was added to the wells at 10 μl/well. After 2 hours, the absorbance was measured at “OD 450” and statistical values were obtained using the plizm6 program. The data represent mean values of the results of two repeated assays (Table 1).
(§3) Specifically, various cancer cell lines were cultured on a microtiter plate (1-3×10^3 cells/well), and the cells were treated with the indole derivative of the present invention and cultured for 4 days. Cytotoxicity was examined by the MTT assay by the same method as in Experimental Example 1-1, and the IC50 was obtained by the log-dose response curve. The data represent mean values of the results of three repeated assays (Table 2).

NCIH-460 = experiment: as above; format: cell-based; conditions: Homo sapiens, NCI-H460, 96 h, NCIH-460 (lung), 4 days, mean of three assays
Experimental: as §2, §3

A431 = experiment: Effect on cell cycle progression (propidium iodine, FACS); format: cell-based, human; conditions: A431, 17 hours
Experimental: (§4) Several cancer cell lines were cultured on a 12 well plate (3×10^4 cells/well), and treated with DMSO or WCI-1031, an indole derivative of the present invention, for 17 hours, and then added with a propidium iodine dye to stain the cellular DNA, and subjected to measurement using FACS. The concentrations at which cells gathered in the G2/M phase and numbers of the cells represented as percentages were shown (Table 5).

HeLa = experiment: as above; format: cell-based, human; conditions: 17 hours
Experimental: as §4

[4] = system: Several cancer cell lines; experiment: Effect on cell cycle progression, summary over the cell lines of Table 5; format: cell-based; conditions: summary over the cell lines of Table 5, 17 hours
Experimental: as §4

HeLa cells = experiment: Anti-proliferative activity in HeLa cell line (MTT assay); format: cell-based; conditions: Homo sapiens, 96 h, 4 days, mean of two repeated assays
Experimental: as §2

[5] = Stability in blood plasma after intravenous injection; format: in vivo; conditions: plasma concentration over time (FIG. 7)
Experimental: In order to examine the stability of the indole derivative of the present invention in vivo, the compound of Example 1 (WCI-1031) was injected intravenously and the plasma concentration was observed over time (FIG. 7).

MCF7 [6] = experiment: Effect on cell cycle progression (propidium iodine, FACS); format: cell-based; conditions: MCF7, 17 hours
Experimental: as §4

NCIH-125 = experiment: as above; format: cell-based; conditions: NCIH-125, 17 hours
Experimental: as §4

K562 [7] = experiment: as above; format: cell-based; conditions: K562, 17 hours
Experimental: as §4

PC3 = experiment: as above; format: cell-based; conditions: PC3, 17 hours
Experimental: as §4

Hep3B = experiment: as above; format: cell-based; conditions: 17 hours
Experimental: as §4

EL4 = experiment: as above; format: cell-based; conditions: EL4, 17 hours
Experimental: as §4

A172 = experiment: as above; format: cell-based; conditions: A172, 17 hours
Experimental: as §4

MCF7 ADR = experiment: as above; format: cell-based; conditions: 17 hours
Experimental: as §4

[8] = Maximum absorbable dose in human (Table 6); conditions: for MAD (maximum absorbable dose in human): SIWV 250 ml, SITT 270
K562/ADR = experiment: Anti-proliferative activity in cancer cells showing multiple drug resistance (MTT assay); format: cell-based
Experimental: as §1

MCF7/ADR = experiment: as above; format: cell-based
Experimental: as §1

Q: Which solubility at 1 h ([1]; phosphate buffer pH 6.5, room temperature) does the source give for `COC(=O)Cn1c(C)c(/C=N/NC(=O)c2cc3c(ccc4ccccc43)o2)c2ccccc21` [WCI-1031, methyl (E)-2-(2-methyl-3-((2-(naphtho[2,1-b]furan-2-carbonyl) hydrazono)methyl)-1H-indole-1-yl)acetate] here?
A: 0.9 µg/mL (≈ 2.05 µM)

Q: What about the solubility at 1 h ([1]; phosphate buffer pH 7.4, room temperature) of the same compound?
A: 0.4 µg/mL (≈ 0.91 µM)

Q: And the IC50 (MCF7 [2])?
A: 1320 nM

Q: And the IC50 (K562 [3])?
A: 532 nM

Q: What about the IC50 (A 549) of the same compound?
A: 495 nM

Q: What about the IC50 (NCIH-460) of the same compound?
A: 671 nM

Q: What about the “effect μM (concentration at which cells gathered in the G2/M phase)” value (“effect μM” below) (A431) of the same compound?
A: 0.5 µM

Q: And the “% of G2/M” value (A431; at the effect concentration)?
A: 66.32%

Q: And the “effect μM” value (HeLa)?
A: 0.5 µM

Q: What about the “% of G2/M” value (HeLa; at the effect concentration) of the same compound?
A: 82.36%

Q: What about the “numbers of the cells in the G2/M phase” value [4] of the same compound?
A: ≥ 50%

Q: And the IC50 (HeLa cells)?
A: 653 nM

Q: And the “stability in the blood plasma” value [5]?
A: excellent

Q: What about the “effect μM” value (MCF7 [6]) of the same compound?
A: 0.5 µM

Q: What about the “% of G2/M” value (MCF7 [6]; at the effect concentration) of the same compound?
A: 59.08%

Q: And the “effect μM” value (NCIH-125)?
A: 1.0 µM

Q: What about the “% of G2/M” value (NCIH-125; at the effect concentration) of the same compound?
A: 48.10%

Q: And the “effect μM” value (K562 [7])?
A: 0.5 µM

Q: What about the “% of G2/M” value (K562 [7]; at the effect concentration) of the same compound?
A: 76.72%

Q: What about the “effect μM” value (PC3) of the same compound?
A: 0.5 µM

Q: What about the “% of G2/M” value (PC3; at the effect concentration) of the same compound?
A: 65.35%

Q: And the “effect μM” value (Hep3B)?
A: 0.5 µM

Q: And the “% of G2/M” value (Hep3B; at the effect concentration)?
A: 68.13%

Q: What about the “effect μM” value (EL4) of the same compound?
A: 0.5 µM

Q: What about the “% of G2/M” value (EL4; at the effect concentration) of the same compound?
A: 50.84%

Q: And the “effect μM” value (A172)?
A: 1.0 µM

Q: And the “% of G2/M” value (A172; at the effect concentration)?
A: 70.10%

Q: And the “effect μM” value (MCF7 ADR)?
A: 0.5 µM

Q: And the “% of G2/M” value (MCF7 ADR; at the effect concentration)?
A: 52.37%

Q: What about the “Ka (intestinal absorption rate constant)” value ([8]; pH 6.5) of the same compound?
A: 0.03 min⁻¹

Q: And the “MAD (maximum absorbable dose in human)” value ([8]; pH 6.5)?
A: 1.8 mg

Q: What about the “Ka (intestinal absorption rate constant)” value ([8]; pH 7.4) of the same compound?
A: 0.03 min⁻¹

Q: And the “MAD (maximum absorbable dose in human)” value ([8]; pH 7.4)?
A: 0.8 mg

Q: And the IC50 (K562/ADR; Homo sapiens, 96 h, K562/ADR multiple drug-resistant line, 4 days, MTT, mean of three assays)?
A: 318 nM

Q: What about the Resistance factor (K562/ADR; ratio of IC50 K562/ADR to IC50 K562) of the same compound?
A: 0.60

Q: What about the IC50 (MCF7/ADR; Homo sapiens, NCI/ADR-RES, 96 h, MCF7/ADR multiple drug-resistant line, 4 days, MTT, mean of three assays) of the same compound?
A: 481 nM

Q: And the Resistance factor (MCF7/ADR; ratio of IC50 MCF7/ADR to IC50 MCF7)?
A: 0.36
